Values after ≈ are worked out from the molar mass of the structure shown. Active and inactive are the calls of the source. The calls are words filed in the database; no cut-off is given here.
Tests used:
P388 = assay: Growth inhibition of mouse P388 cells; type: functional; conditions: read-out: ED50 (the source's name)
NCI-H460 = assay: Growth inhibition of human NCI-H460 cells; type: functional; conditions: read-out: ED50 (the source's name)
Cryptococcus neoformans = assay: Antifungal activity against Cryptococcus neoformans ATCC 90112 at […] after 42 hrs; type: functional, organism-based
Candida albicans = assay: Antifungal activity against Candida albicans ATCC 90028 at […] after 42 hrs; type: functional, organism-based
[1] = Growth inhibition of human SF295 cells; type: cell-based, SF-295; conditions: read-out: ED50 (the source's name)
Staphylococcus aureus = assay: Antibacterial activity against Staphylococcus aureus ATCC 29213 assessed per 6 mm disk after 16 hrs; type: functional
Enterococcus faecalis = assay: Antibacterial activity against Enterococcus faecalis ATCC 29212 assessed per 6 mm disk after 16 hrs; type: functional
A498 = assay: Growth inhibition of human A498 cells; type: functional; conditions: read-out: ED50 (the source's name)
KM-20L2 = assay: Growth inhibition of human KM20L2 cells; type: functional; conditions: read-out: ED50 (the source's name)
Neisseria gonorrhoeae = assay: Antibacterial activity against Neisseria gonorrhoeae ATCC 49226 at […] after 16 hrs; type: functional, organism-based
SK-MEL-5 = assay: Growth inhibition of human SK-MEL-5 cells; type: functional; conditions: read-out: ED50 (the source's name)
Escherichia coli = assay: Antibacterial activity against Escherichia coli ATCC 25922 at […] after 16 hrs; type: functional, organism-based
OVCAR-3 = assay: Growth inhibition of human OVCAR-3 cells; type: functional; conditions: read-out: ED50 (the source's name)
Bacillus subtilis = assay: Antibacterial activity against Bacillus subtilis; type: functional

Compound | EC50 (P388) | EC50 (NCI-H460) | Activity (Cryptococcus neoformans) | Activity (Candida albicans) | GI50 [1] | MIC (Staphylococcus aureus) | MIC (Enterococcus faecalis) | EC50 (A498) | EC50 (KM-20L2) | Activity (Neisseria gonorrhoeae) | EC50 (SK-MEL-5) | Activity (Escherichia coli) | EC50 (OVCAR-3) | MIC (Bacillus subtilis)
O=C1NCCc2cc(Br)c(O)c(c2)Oc2ccc(cc2Br)[C@H](O)CNC(=O)/C(=N/O)Cc2cc(Br)c(O)c(c2)Oc2c(Br)cc(cc2Br)C/C1=N\O [BASTADIN 8] | 22.6 µg/mL (≈ 21.8 µM) | > 10 µg/mL | inactive | inactive | > 10 µg/mL | 0.195 µg | <50 µg | 7 µg/mL (≈ 6.76 µM) | > 10 µg/mL | inactive | 9.9 µg/mL (≈ 9.56 µM) | inactive | > 10 µg/mL | –
O=C1NCCc2cc(Br)c(O)c(c2)Oc2ccc(cc2Br)[C@H](O)CNC(=O)/C(=N/O)Cc2cc(Br)c(O)c(c2)Oc2ccc(cc2Br)C/C1=N\O [BASTADIN 10] | > 10 µg/mL | 3.4 µg/mL (≈ 3.56 µM) | inactive | inactive | 3.2 µg/mL (≈ 3.35 µM) | 1.56 µg | 6.25 µg | 4.5 µg/mL (≈ 4.71 µM) | 2 µg/mL (≈ 2.09 µM) | inactive | 3.7 µg/mL (≈ 3.87 µM) | inactive | 2.9 µg/mL (≈ 3.03 µM) | –
O=C1NCCc2ccc(c(Br)c2)Oc2cc(ccc2O)CCNC(=O)/C(=N/O)Cc2cc(Br)c(O)c(c2)Oc2c(Br)cc(cc2Br)C/C1=N\O [BASTADIN 13] | – | – | – | – | – | – | – | – | – | – | – | – | – | 6 µg/mL (≈ 6.38 µM)
O=C1NCCc2cc(Br)c(O)c(c2)Oc2c(Br)cc(cc2Br)[C@H](O)CNC(=O)/C(=N/O)Cc2cc(Br)c(O)c(c2)Oc2ccc(cc2Br)C/C1=N\O [BASTADIN 12] | 9.1 µg/mL (≈ 8.79 µM) | 2.3 µg/mL (≈ 2.22 µM) | inactive | inactive | 2.4 µg/mL (≈ 2.32 µM) | 6.25 µg | 50 µg | 2.1 µg/mL (≈ 2.03 µM) | 2.1 µg/mL (≈ 2.03 µM) | inactive | 2.2 µg/mL (≈ 2.13 µM) | inactive | 2 µg/mL (≈ 1.93 µM) | –

Source: ChEMBL document CHEMBL1159245, “Antineoplastic agents, 326. The stereochemistry of bastadins 8, 10, and 12 from the Bismarck archipelago marine sponge Ianthella basta” (J Nat Prod, 1995)
